In patent US10577406B2, “FKBP-L polypeptides and uses in angiogenesis-mediated disorders” (ALMAC DISCOVERY LIMITED, priority 2006, dated 2020):

Columns and labels:
HMEC-1 cells [1] = assay: MTT assay of cell viability/proliferation; conditions: 24mer 10^−5-10^−10M, 1-57mer 10^−9M and 10^−10M; 24 hours and 48 hours
Procedure: (§3) An MTT assay was used to measure cell viability/proliferation.
(§4) An MTT assay was used to measure cell viability and/or proliferation. Briefly, HMEC-1 cells were seeded (2.5×10^3) in 96 well plates and allowed to attach for 5 h. The cells were treated with FKBP-L 24mer (SEQ ID NO: 10) (10^−5-10^−10M), 1-57mer (SEQ ID NO: 6) (10^−9M and 10^−10M) or medium (control).
(§5) Post incubation the cells were exposed to a 5 mgml^−1 solution of 3-(-4,5-dimethylthiazol-2-yl) 2,5 diphenyl tetrazolium (MTT) for 4 h. The cells were aspirated and 200 μl of DMSO added to reduce the salt and induce a colour change.

[2] = test system: PC3 (prostate tumor cell line; CD44 +ve); assay: tumor cell migration, wound closure assay, PC3; assay type: cell-based; conditions: for effect on tumor cell migration: PC3
Procedure: In these experiments, the effect of recombinant FKBP-L on tumor cell migration was assessed. The in vitro migration assay used in these studies is a modified version of the method described by Ashton et al (1999) see supra. PC3, MDA231, and HT29 tumor cells were plated into individual chambers on a glass slide and grown to 90% confluence overnight. The medium was removed and the monolayers wounded. The monolayer was re-supplemented with fresh medium and the required volume of His-tagged recombinant FKBP-L protein (SEQ ID NO: 1) was added to give the final concentrations shown. The monolayers were incubated for 24 hours and then fixed in 4% PBS buffered paraformaldehyde.
The extent of “wound” closure was blindly assessed microscopically by an independent investigator and quantified using a calibrated eyepiece graticule (1 mm/100 μm graduation) at 20× magnification (Olympus BX 50). The extent of closure in the FKBP-L treated slides was compared to time matched sham-treated controls and the percent inhibition of wound closure compared to time matched controls calculated.
(§1) The in vitro migration assay used in these studies is a modified version of the method described by Ashton et al. (1999) see supra. PC3 (prostate tumor cell line; CD44 positive; CD44 +ve), MDA231 (breast tumor cell line; CD44 +ve), HT29 (Colorectal tumor cell line; CD44 +ve), MCF-7 (breast tumor cell line; CD44 negative; CD44 −ve) and DU145 (prostate tumor cell line; CD44 −ve) were plated into individual chambers on a glass slide and grown to 90% confluence overnight. The medium was removed and the monolayers wounded. […] The monolayers were incubated for 24 h and then fixed in 4% PBS buffered paraformaldehyde.
(§2) The extent of “wound” closure was blindly assessed microscopically by an independent investigator and quantified using a calibrated eyepiece graticule (1 mm/100 μm graduation) at 20× magnification (Olympus BX 50). The extent of closure in the FKBP-L treated slides was compared to time matched sham treated controls and the % inhibition of wound closure compared to time matched controls calculated.
PC3 cells were transfected for 72 h with either sicontrol non-targeting siRNA (SCR siRNA) (Dharmacon, Cat #D-001210-01-05) or CD44 targeted siRNA (CD44siRNA) (Dharmacon, Cat #009999). Briefly, 1.2×10^6 PC3 cells were seeded into two P90 dishes and incubated at 37° C. for 24 h. To transfect, 150 μl of the either sicontrol non-targeting siRNA or CD44 targeting siRNA (2 μM) was added to 450 μl of serum free medium (Tube 1). […] The monolayer was fixed after a further 24 h and the extent of wound closure was blindly assessed using a calibrated graticule. Percent inhibition of wound closure in FKBP-L-treated monolayers compared to untreated monolayers was calculated. […]

DU145 tumours = assay: prostate cancer xenograft model, daily IP injection; assay type: in vivo, SCID mice
Procedure: Du145 (prostate carcinoma) cells were obtained from Cancer Research UK and cultured in RPMI 1640 medium (Invitrogen) supplemented with 10% foetal calf serum. All cell lines were grown as monolayers, incubated at 37° C. under 5% CO2.
24 male immunocompromised (severe combined immunodeficient) mice were used (Harlan). The mice were acclimatised and caged in groups of 5 or less in an isolator. Du145 (prostate carcinoma) cells were cultured as previously described. Sub-confluent cells were harvested and the cell concentration was adjusted to 5×10^7 cells/ml in PBS. The dorsum of each mouse was shaved. After administrating aesthetic, each mouse received intra-dermal injections of 5×10^6 Du145 tumour cells (100 μl) bilaterally into the rear dorsum with a 26-gauge needle. The tumours were allowed to grow until they reached a volume of 150-175 mm^3. The mice were randomly divided into four treatment groups: (a) Control: PBS only (8 mice); (b) 24mer FKBPL peptide: 0.3 mg/kg/day (6 mice); (c) 24mer FKBPL peptide: 3×10^−3 mg/kg/day (6 mice); and (d) 24mer FKBPL peptide: 3×10^−4 mg/kg/day (5 mice).
The mice received daily IP injections (100 μl) of the above treatments. The weight and the tumour volume of each mouse were recorded every 2 days. Tumour volume was calculated as: Length×Breadth×Height×0.5236. Twenty-one days after initial treatment the following animals were sacrificed: 0.3 mg/kg/day 24mer FKBPL (2 mice), 3×10^−3 mg/kg/day (2 mice), 3×10^−4 mg/kg/day (1 mouse) and PBS (2 mice). The tumours were excised and stored in saline formalin solution for future histopathological analysis.

HMEC-1 cells [3] = test system: HMEC-1 cells
Procedure: as §3, §4, §5

[4] = test system: DU145 (prostate tumor cell line; CD44 −ve); assay: tumor cell migration, wound closure assay, DU145; assay type: cell-based, human; conditions: 24 h
Procedure: as §1, §2

| Molecule | effect on proliferation of HMEC-1 cells compared to time-matched controls (HMEC-1 cells [1]) | effect on tumor cell migration ([2]; 10^−14-10^−7 M, 24 h) | tumors compared with controls (Kaplan-Meier, time to 3× treatment volume) (DU145 tumours; 0.0003 mg/kg/day, daily IP) | time for tumours to reach 3× their treatment volume (Kaplan-Meier survival) (DU145 tumours; 0.003 mg/kg/day, daily IP) | time for tumours to reach 3× their treatment volume (Kaplan-Meier survival) (DU145 tumours; 0.3 mg/kg/day, daily IP) | tumours that failed to reach their volume tripling within the duration of the experiment (all but the stated number) (DU145 tumours; 0.3 mg/kg/day, daily IP) | growth of DU145 tumours compared to vehicle only treated tumours (DU145 tumours; 0.3 mg/kg/day, daily i.p.) | growth of DU145 tumours compared to vehicle only treated tumours (DU145 tumours; 3×10^−3 mg/kg/day, daily i.p.) | body weight after daily treatment (tolerability) (DU145 tumours; daily IP injection) | tumour appearance (DU145 tumours; most effective doses, daily i.p., a number of tumours) | effect on tumor cell migration ([2]; 24 hours) | effect on migration of CD44 siRNA treated cells ([2]; PC3 transfected with CD44 targeted siRNA, 1500 ng/ml, 24 h) | inhibition of migration (wound closure) compared to untreated monolayers ([2]; PC3 transfected with non-targeting SCR siRNA, 1500 ng/ml, 24 h) [%] | effect on proliferation of HMEC-1 cells compared to time matched controls (HMEC-1 cells [3]) | effect on tumor cell migration [4] |
| --- | --- | --- | --- | --- | --- | --- | --- | --- | --- | --- | --- | --- | --- | --- | --- |
| H-QIRQQPRDPPTETLELEVSPDPAS-OH [FKBP-L 24mer] | neither of the peptides had any significant effect | can inhibit | not significantly different from controls | significantly later than controls | significantly later than controls | All but two tumours (of 6) | significantly slowed the growth | significantly slowed the growth | None of the animals lost weight | evidence of a necrotic centre |  |  |  |  |  |
| full length recombinant FKBP-L: recombinant full length his-tagged FKBP-L protein (SEQ ID NO: 1) expressed in BL21 (DE3) (protein, listed as Homo sapiens, His tag) MRGSHHHHHHGMASMTGGQQMGRDLYDDDDKDRWGSMETPPVNTIGEKDTSQPQQEWEKNLRENLDSVIQIRQQPRDPPTETLELEVSPDPASQILEHTQGAEKLVAELEGDSHKSHGSTSQMPEALQASDLWYCPDGSFVKKIVIRGHGLDKPKLGSCCRVLALGFPFGSGPPEGWTELTMGVGPWREETWGELIEKCLESMCQGEEAELQLPGHTGPPVGLTLASFTQGRDSWELETSEKEALAREERARGTELFRAGNPEGAARCYGRALRLLLTLPPPGPPERTVLHANLAACQLLLGQPQLAAQSCDRVLEREPGHLKALYRRGVAQAALGNLEKATADLKKVLAIDPKNRAAQEELGKVVIQGKNQDAGLAQGLRKMFG |  |  |  |  |  |  |  |  |  |  | inhibits tumor cell migration in a dose-dependent manner | no effect | 21.7 | no significant effect | not in CD44 −ve tumor cell lines |
